The values below come from ChEMBL document CHEMBL1201862, “PubChem BioAssay data set” (2004).

SMILES strings stand for the structures. Where a name gives a salt, the structure may show the parent alone. Calls of active or inactive are those of the source.

Assay [1] can be described thus: Luminescent dose response cell-based high throughput screening assay for inhibitors of the Janus kinase 2 mutant JAK2V617F. [Related pubchem assays: 1446 (Primary screen.), 1521 (Confirmation assay.), 1486 (Counter screen.)]. The assay is classed as functional.
A short description of assay [2]: M. tuberculosis growth inhibition, HTS (AID 449762). The class given is functional.
The target of the next assay is Beta-galactosidase (Escherichia coli, UniProt Q8VNN2). In words: Dose response counterscreen for EBI2 assay utilizing the enzyme, b-galactosidase. The class given is functional.
The nature of assay [3]: microbe, parasite or virus in culture. The class given is functional. The note with it: Mycobacterium tuberculosis.
The nature of assay [4]: P. falciparum Dd2 growth inhibitors, dose response, SYBR Green, dry powder samples, set 4 (AID 1159572). The class given is functional, cell-based.
In assay [5] the target is T1, Sphingosine 1-phosphate receptor 2 (Homo sapiens, UniProt O95136). Briefly: Dose Response Cell Based Assay for Agonists of the S1P2 Receptor. [Related pubchem assays: 729, 736, 843 ]. The assay is classed as functional.
A short description of assay [6]: MC4R antagonists, dose response, counter-screen for LGR2 antagonist project, cell-based, plate reader, cherry pick (AID 743444).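 Further: transfected HEK 293 cells stimulated with alpha-MSH peptide; potency of inhibitors of the alpha-MSH evoked signal.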 The class given is functional.
Assay [7] in a line: CEM21 lymphoblast cell cytotoxicity, dose response, cytotoxicity control for viral fusion inhibitor project, CellTiter-Glo luminescence, cherry-picked (AID 652042).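 Further: potency for signal decrease meaning cytotoxicity.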 The assay is classed as functional, cell-based.
Assay [8] is described as follows: HEK293 cell cytotoxicity, dose response, cytotoxicity control, plate reader, cherry-picked samples (AID 743446). The assay is classed as functional, cell-based.
A short description of assay [9]: P. falciparum Dd2 growth inhibitors, dose response, SYBR Green, dry powder samples, set 9 (AID 1159568). The assay is classed as functional, cell-based.
Assay [10] is described as follows: A549 cell cytotoxicity, dose response, cytotoxicity control, plate reader, cherry-pick, antagonist series (AID 743412). The class given is functional, cell-based.
A short description of assay [11]: HepG2 cell cytotoxicity, dose response, cytotoxicity control, cherry-picks, set 5 (AID 1053118). The assay is classed as functional, cell-based.
The nature of assay [12]: HepG2 cell cytotoxicity, dose response, cytotoxicity control, plate reader, cherry-pick, antagonist series (AID 743416). The class given is functional, cell-based.
Assay [13] is described as follows: LGR2 antagonists, dose response, cell-based, HEK293, CRE-luciferase reporter, cherry pick, set 2 (AID 743343).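 Further: transfected cells were stimulated with diluted bursicon conditioned medium after compound addition.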 The assay is classed as functional.
The nature of assay [14]: A549 cell cytotoxicity, dose response, cytotoxicity control, cherry-picks, 26 µM top dose (AID 1053119). The assay is classed as functional, cell-based.
For assay [15], the target named is T1, Sphingosine 1-phosphate receptor 2. In words: Dose Response Cell Based Assay for Agonists of the S1P2 Receptor of Purchased Analogues. [Related pubchem assays: 729, 843, 854, 736 ]. The assay is classed as functional.
The test system of a further assay is Vero. In words: Vero cell cytotoxicity, cytotoxicity control for flavivirus capping enzyme inhibitors (AID 588742). The assay is classed as functional. As to conditions: Chlorocebus sabaeus.
Assay [16] addresses Glutathione-S-transferase (Schistosoma japonicum, UniProt Q26513). Briefly: biotin-GST/anti-GST TR-FRET signal inhibitors, dose response, artefact control for Vif-APOBEC3G degradation inhibitor project, biochemical (AID 1117362). The class given is functional.
The target in a further assay is NADPH oxidase 1 (Homo sapiens, UniProt Q9Y5S8). Briefly: Late-stage luminescence-based cell-based dose response assay to identify inhibitors of NADPH oxidase 1 (NOX1): Synthesized analogs 3. The assay is classed as functional.
The target in assay [17] is Metabotropic glutamate receptor 7 (Homo sapiens, UniProt Q14831). Briefly: mGlu7 positive allosteric modulators, dose response, cell-based, calcium mobilization, Galpha15 (AID 743384). The assay is classed as functional.
Assay [18] deals with G-protein coupled receptor 183 (Homo sapiens, UniProt P32249). Briefly: SAR confirmation of small molecule antagonists of the EBI2 receptor via a luminescent beta-arrestin assa. The class given is functional.
For assay [19], the system named is Streptococcus sp. 'group A'. Briefly: growth inhibition of control SK(-) GAS strain, dose response, counter-screen for streptokinase expression inhibitor project, luminescence, kanamycin, BacTiterGlo, confirmation (AID 1900). The class given is functional, organism-based.
In the next assay the test system is Streptococcus. Briefly: Group A Streptococcus viability loss, dose response, counter-screen for streptokinase expression inhibitor project, luminescence, BacTiterGlo (AID 1915).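 Further: potency for reduction of bacterial viability or growth.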 The assay is classed as functional, organism-based.
A further assay concerns SN12K1. In words: cells. The assay is classed as functional. The note with it: Homo sapiens, SN12K1.
Another assay relates to P388. In words: cells. The assay is classed as functional. As to conditions: Mus musculus, P388.
For the next assay, the target named is T2, Streptokinase A (Streptococcus pyogenes serotype M1, UniProt P10520).
T2 sequence (P10520 whole entry): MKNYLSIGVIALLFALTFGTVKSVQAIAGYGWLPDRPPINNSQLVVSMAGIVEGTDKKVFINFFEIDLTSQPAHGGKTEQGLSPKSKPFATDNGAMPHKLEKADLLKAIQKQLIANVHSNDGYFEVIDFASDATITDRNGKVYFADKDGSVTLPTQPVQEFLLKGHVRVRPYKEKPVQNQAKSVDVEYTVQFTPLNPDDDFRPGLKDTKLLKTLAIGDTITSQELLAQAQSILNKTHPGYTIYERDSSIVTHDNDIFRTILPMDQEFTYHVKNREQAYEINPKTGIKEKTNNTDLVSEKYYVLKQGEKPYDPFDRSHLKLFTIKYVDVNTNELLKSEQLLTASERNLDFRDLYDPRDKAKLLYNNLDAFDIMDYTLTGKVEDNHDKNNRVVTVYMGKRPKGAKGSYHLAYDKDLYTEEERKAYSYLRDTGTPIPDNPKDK
Briefly: S. pyogenes streptokinase expression inhibitors, potency, dose response, plasminogen activation absorbance, OD405 (AID 1914).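 Further: secreted streptokinase activity via plasminogen activation per viability signal from cell pellet.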 The class given is functional, Streptococcus pyogenes M1 GAS.

Assay [20] is described as follows: Luminescence-based dose response cell-based high throughput screening assay for cytotoxic compounds using the IEC-6 intestinal epithelial cell line. [Related pubchem assays: 1858 (Summary AID.), 1825 (Counterscreen.), 1907 (Confirmation screen.)]. The assay is classed as functional.
The next assay has as its system P388/ADR. Briefly: cells. The class given is functional. As to conditions: Mus musculus.

T1 sequence (O95136 whole entry): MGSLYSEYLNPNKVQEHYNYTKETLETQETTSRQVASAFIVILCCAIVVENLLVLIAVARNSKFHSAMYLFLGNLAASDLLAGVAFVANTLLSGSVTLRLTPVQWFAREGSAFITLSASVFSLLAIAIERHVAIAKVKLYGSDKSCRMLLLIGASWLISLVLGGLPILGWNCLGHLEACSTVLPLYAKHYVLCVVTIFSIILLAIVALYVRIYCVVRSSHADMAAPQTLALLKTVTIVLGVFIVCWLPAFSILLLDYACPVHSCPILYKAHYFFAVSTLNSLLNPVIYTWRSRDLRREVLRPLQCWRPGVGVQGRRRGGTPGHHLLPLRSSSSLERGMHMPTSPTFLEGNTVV
Sequence of Metabotropic glutamate receptor 7 (Q14831 whole entry): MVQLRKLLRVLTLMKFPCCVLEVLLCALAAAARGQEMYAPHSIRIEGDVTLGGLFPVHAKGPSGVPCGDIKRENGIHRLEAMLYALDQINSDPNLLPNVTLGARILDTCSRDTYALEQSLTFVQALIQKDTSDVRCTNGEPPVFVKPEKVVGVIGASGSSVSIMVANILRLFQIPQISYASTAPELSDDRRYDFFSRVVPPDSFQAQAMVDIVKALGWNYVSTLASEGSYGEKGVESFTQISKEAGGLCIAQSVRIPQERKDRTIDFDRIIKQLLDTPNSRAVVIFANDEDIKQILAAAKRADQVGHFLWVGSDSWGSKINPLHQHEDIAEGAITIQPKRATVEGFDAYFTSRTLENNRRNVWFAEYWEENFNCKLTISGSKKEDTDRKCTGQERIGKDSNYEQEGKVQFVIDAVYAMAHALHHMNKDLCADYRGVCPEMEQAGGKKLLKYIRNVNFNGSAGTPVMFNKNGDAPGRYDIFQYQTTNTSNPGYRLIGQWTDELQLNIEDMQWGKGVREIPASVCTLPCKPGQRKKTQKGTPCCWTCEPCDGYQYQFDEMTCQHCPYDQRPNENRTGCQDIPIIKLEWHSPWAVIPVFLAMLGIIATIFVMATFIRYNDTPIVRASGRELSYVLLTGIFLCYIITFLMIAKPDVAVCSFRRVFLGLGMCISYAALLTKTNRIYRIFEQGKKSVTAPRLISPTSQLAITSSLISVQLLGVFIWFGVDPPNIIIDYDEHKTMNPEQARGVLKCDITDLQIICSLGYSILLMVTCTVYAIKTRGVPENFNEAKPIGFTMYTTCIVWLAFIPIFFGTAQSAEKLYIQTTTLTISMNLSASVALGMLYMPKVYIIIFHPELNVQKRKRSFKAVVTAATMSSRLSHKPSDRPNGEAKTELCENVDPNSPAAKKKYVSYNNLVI
Sequence of Glutathione-S-transferase (Q26513 whole entry): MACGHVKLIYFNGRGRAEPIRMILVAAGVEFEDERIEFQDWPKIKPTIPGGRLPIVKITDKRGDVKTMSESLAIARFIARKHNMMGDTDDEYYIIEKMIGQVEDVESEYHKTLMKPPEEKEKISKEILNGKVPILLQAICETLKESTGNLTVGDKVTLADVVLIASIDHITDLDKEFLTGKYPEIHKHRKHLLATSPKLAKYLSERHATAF
Sequence of G-protein coupled receptor 183 (P32249 whole entry): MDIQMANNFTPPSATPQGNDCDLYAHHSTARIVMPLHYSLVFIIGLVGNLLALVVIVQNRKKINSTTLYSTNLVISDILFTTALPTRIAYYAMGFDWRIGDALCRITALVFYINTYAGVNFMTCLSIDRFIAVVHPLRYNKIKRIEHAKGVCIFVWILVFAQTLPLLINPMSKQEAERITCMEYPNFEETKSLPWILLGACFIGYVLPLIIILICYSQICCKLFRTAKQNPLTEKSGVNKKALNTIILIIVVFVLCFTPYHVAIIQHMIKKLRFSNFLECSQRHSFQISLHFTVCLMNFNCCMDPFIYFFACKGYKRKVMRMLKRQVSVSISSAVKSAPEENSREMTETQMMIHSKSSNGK
Sequence of NADPH oxidase 1 (Q9Y5S8 whole entry): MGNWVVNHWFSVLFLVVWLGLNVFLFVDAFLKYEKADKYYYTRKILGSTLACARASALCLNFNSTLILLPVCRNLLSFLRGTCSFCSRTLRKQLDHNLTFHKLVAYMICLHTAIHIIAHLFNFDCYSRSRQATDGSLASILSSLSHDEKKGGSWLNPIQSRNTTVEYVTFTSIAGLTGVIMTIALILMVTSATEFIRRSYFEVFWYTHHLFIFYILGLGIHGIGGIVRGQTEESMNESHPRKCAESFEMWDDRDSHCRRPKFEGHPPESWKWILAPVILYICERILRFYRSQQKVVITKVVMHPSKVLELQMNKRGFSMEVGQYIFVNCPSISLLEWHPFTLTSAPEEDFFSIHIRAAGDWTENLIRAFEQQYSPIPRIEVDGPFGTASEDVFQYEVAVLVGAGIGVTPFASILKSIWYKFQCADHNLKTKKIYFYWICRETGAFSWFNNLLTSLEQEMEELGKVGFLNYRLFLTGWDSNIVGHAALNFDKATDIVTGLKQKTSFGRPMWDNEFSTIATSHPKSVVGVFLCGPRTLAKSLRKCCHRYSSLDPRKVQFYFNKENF
Sequence of Beta-galactosidase (Q8VNN2 whole entry): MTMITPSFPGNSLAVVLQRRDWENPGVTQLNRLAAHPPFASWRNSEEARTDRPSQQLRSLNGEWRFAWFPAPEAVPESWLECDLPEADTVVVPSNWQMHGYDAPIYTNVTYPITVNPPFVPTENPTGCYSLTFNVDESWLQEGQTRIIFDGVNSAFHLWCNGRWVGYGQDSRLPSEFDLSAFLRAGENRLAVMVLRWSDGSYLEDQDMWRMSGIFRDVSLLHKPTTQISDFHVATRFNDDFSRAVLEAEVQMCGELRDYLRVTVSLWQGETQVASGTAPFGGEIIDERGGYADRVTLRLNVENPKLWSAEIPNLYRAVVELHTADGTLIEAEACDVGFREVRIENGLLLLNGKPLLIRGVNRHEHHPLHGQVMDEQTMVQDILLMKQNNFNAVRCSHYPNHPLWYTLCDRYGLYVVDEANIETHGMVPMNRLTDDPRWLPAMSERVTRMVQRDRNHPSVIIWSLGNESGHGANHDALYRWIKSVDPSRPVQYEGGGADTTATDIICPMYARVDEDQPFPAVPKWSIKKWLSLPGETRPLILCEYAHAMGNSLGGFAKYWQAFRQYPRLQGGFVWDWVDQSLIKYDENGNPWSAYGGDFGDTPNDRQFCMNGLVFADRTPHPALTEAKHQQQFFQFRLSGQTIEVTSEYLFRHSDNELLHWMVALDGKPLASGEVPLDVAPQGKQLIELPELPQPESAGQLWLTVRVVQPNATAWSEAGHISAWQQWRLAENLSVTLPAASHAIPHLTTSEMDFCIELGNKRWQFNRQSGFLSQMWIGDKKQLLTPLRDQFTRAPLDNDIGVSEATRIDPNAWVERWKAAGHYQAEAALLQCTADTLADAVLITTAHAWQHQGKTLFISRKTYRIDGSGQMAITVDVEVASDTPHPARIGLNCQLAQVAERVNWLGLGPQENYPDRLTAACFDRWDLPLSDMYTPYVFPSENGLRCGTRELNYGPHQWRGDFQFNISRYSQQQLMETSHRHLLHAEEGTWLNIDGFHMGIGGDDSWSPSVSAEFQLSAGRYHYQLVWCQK

Take `Cc1nn2c(NCc3ccccn3)c3c(nc2c1-c1ccccc1)CCC3`: in assay [1], the IC50 was 1.03 µM (active).
For the molecule `O=C(c1cc2cc(Cl)ccc2[nH]1)N1CCN(Cc2ccc3c(c2)OCO3)CC1`, the IC50 in assay [2] is > 100 µM (active); on Beta-galactosidase, > 80 µM (inactive). The CC50 in assay [3] is > 40 µM (active).
For `COc1ccc2c3c([nH]c2c1)[C@H](CO)N(C(C)=O)CC31CCN(C(=O)CN2CCOCC2)CC1`, the AC50 in [4] was 2.59 µM (active).
Regarding `CCOC(=O)c1c(C)n(C)c2ccc(OCC(O)Cn3nc(C)cc3C)cc12` (stereo not drawn), the EC50 in [5] was 4.71 µM (active).
In the case of `O=C(C[C@@H]1C[C@@H]2c3cc(NC(=O)c4ccc5c(c4)OCO5)ccc3O[C@@H]2[C@@H](CO)O1)NCc1ccc(Oc2ccccc2)cc1`, the AC50 was 7.28 µM (active) in [6]; 26.1 µM (active) in [7]; 24.7 µM (active) in assay [8]; 5.69 µM (active) in assay [9]; 21.2 µM (active) in assay [10]; 37.1 µM (active) in assay [11]. Also, the AC50 is 27.7 µM (active) in assay [12], 33.3 µM (active) in assay [13] and 30.2 µM (active) in assay [14].
Regarding `Cc1cc(C(=O)COC(=O)C(O)c2ccccc2)c(C)n1Cc1ccccc1` (stereo not drawn), the EC50 in assay [15] is > 30 µM (not active).
Take `Oc1ccccc1/C=N/c1c(-c2ccco2)nc2ccccn12`: the CC50 with Vero is > 40 µM (active). In [16], the IC50 is > 100 µM (active).
As for `CN1c2ccccc2Sc2cc(C(=O)c3ccccc3)ccc21`, at NADPH oxidase 1, the IC50 is > 20 µM (not active).
Regarding `CCn1c(C)cc(C(=O)CSc2ccc(NC(C)=O)cc2)c1C`, the EC50 in [17] was 10 µM (active).
Take `CC(C)c1ccc(CN2CCN(C(=O)/C=C/c3ccc(Br)cc3)CC2)cc1`: the IC50 in assay [18] is 5.92 nM (active).
Turning to `N=c1ccn2c(n1)O[C@H]1[C@H](O)[C@@H](CO)O[C@H]12` [ANCITABINE HYDROCHLORIDE], the EC50 in assay [19] is 3.2 µM (active); in the assay with Streptococcus, 53.1 µM (active); on Streptokinase A it was > 150 µM (not active). Besides, the GI50 in the assay on SN12K1 is 191 nM (active); in the assay on P388 it was 103 nM (active); in the assay on P388/ADR, 205 nM (active). Moreover, the IC50 in [20] is 1.79 µM (active).
